From publication PMC8424369 (Journal of Pharmaceutical Analysis, 2020)

Assays:
[1] = Stability of QC samples in transport medium; format: physicochemical; conditions: HBSS, n=3
Caco-2 cell monolayer = experiment: Bidirectional transport experiments on Caco-2 cell monolayer model; format: in vitro ADME, human; conditions: for Intestinal absorption / transport mechanism speculated from ER: comparison of Papp in two directions; for Papp(AP-BL): AP to BL; for Papp(AP-BL) / Recovery (%) BL-AP / Papp(BL-AP) / ER (efflux ratio, Papp(BL-AP)/Papp(AP-BL)): donor 10 μM, 3 h; for Papp(AP-BL) / Recovery (%) BL-AP / Papp(BL-AP): 37 °C; for Papp(AP-BL) / Papp(BL-AP): single time point, mean ± S.D. (n=3); for Recovery (%) BL-AP / Papp(BL-AP): BL to AP
[2] = as above; format: in vitro ADME, human; conditions: human, donor 10 μM, 3 h
[3] = high QC conc. (SSs 100, SGF 1000, SGD 800, SGG 2200 nM)
[4] = low QC conc. (SSs 1, SGF 10, SGD 8, SGG 22 nM)
[5] = middle QC conc. (SSs 10, SGF 100, SGD 80, SGG 220 nM)

Row | SMILES | Stability, Autosampler (4 °C for 8 h), RE (%) [1, 3] [%] | Stability, Bench-top (room temperature for 6 h), RE (%) [1, 3] [%] | Stability, Freeze-thaw (three cycles at −80 °C), RE (%) [1, 3] [%] | Stability, Processed samples (−80 °C for 8 h), RE (%) [1, 3] [%] | Stability, Autosampler (4 °C for 8 h), RE (%) [1, 4] [%] | Stability, Bench-top (room temperature for 6 h), RE (%) [1, 4] [%] | Stability, Freeze-thaw (three cycles at −80 °C), RE (%) [1, 4] [%] | Stability, Processed samples (−80 °C for 8 h), RE (%) [1, 4] [%] | Stability, Autosampler (4 °C for 8 h), RE (%) [1, 5] [%] | Stability, Bench-top (room temperature for 6 h), RE (%) [1, 5] [%] | Stability, Freeze-thaw (three cycles at −80 °C), RE (%) [1, 5] [%] | Stability, Processed samples (−80 °C for 8 h), RE (%) [1, 5] [%] | Intestinal absorption / transport mechanism speculated from ER (Caco-2 cell monolayer) | Papp(AP-BL) (Caco-2 cell monolayer) | Recovery (%) BL-AP (Caco-2 cell monolayer) [%] | Papp(BL-AP) (Caco-2 cell monolayer) | ER (efflux ratio, Papp(BL-AP)/Papp(AP-BL)) (Caco-2 cell monolayer) | further results
1 | C[C@H]1O[C@@H](O[C@H]2CC[C@@]3(C)[C@@H](CC[C@]4(C)[C@@H]3C=C[C@]35OC[C@@]6(CCC(C)(C)C[C@H]63)[C@@H](O)C[C@]54C)[C@]2(C)CO)[C@H](O)[C@@H](O[C@@H]2O[C@H](CO)[C@@H](O)[C@H](O)[C@H]2O)[C@H]1O [SSa] | −1.88 | 0.62 | 1.36 | −1.50 | −3.60 | −1.06 | −7.46 | −10.40 | 0.91 | 2.00 | 8.65 | 2.87 | passive transport | – | – | – | – | efflux ratio at 3 h, 10 μM ([2]; Caco-2, ER (efflux ratio, Papp(BL-AP)/Papp(AP-BL))): 1.15; Papp A→B at 3 h, 10 μM ([2]; Caco-2, Papp(AP-BL), AP to BL, 37 °C, single time point, mean ± S.D. (n=3)): 0.088 ± 0.014 ×10⁻⁶ cm/s; Papp B→A at 3 h, 10 μM ([2]; Caco-2, Papp(BL-AP), BL to AP, 37 °C, single time point, mean ± S.D. (n=3)): 0.102 ± 0.031 ×10⁻⁶ cm/s; recovery at 3 h, 10 μM ([2]; Caco-2, Recovery (%) BL-AP, BL to AP, 37 °C): 77.6%
2 | C[C@H]1O[C@@H](O[C@H]2CC[C@@]3(C)[C@@H](CC[C@]4(C)[C@@H]3C=CC3=C5CC(C)(C)CC[C@]5(CO)[C@H](O)C[C@]34C)[C@]2(C)CO)[C@H](O)[C@@H](O[C@@H]2O[C@H](CO)[C@@H](O)[C@H](O)[C@H]2O)[C@H]1O [SSb2] | 5.11 | −0.27 | 8.34 | 4.04 | 0.92 | 0.01 | 2.62 | 3.52 | 0.35 | 5.34 | 3.06 | 6.93 | passive transport | 0.051 ± 0.010 × 10^−6 cm/s | 68.12 | 0.055 ± 0.011 × 10^−6 cm/s | 1.09 | –
3 | C[C@H]1O[C@@H](O[C@H]2CC[C@@]3(C)[C@@H](CC[C@]4(C)[C@@H]3C=C[C@]35OC[C@@]6(CCC(C)(C)C[C@H]63)[C@H](O)C[C@]54C)[C@]2(C)CO)[C@H](O)[C@@H](O[C@@H]2O[C@H](CO)[C@@H](O)[C@H](O)[C@H]2O)[C@H]1O [SSd] | −0.92 | −8.09 | 12.04 | −5.31 | −5.69 | 0.83 | −1.11 | 1.51 | −0.46 | 8.37 | 5.76 | −0.37 | certain uptake transporters were probably involved | 0.312 ± 0.020 × 10^−6 cm/s | 68.96 | 0.079 ± 0.012 × 10^−6 cm/s | 0.25 | –
